Experimental data as given in PubChem BioAssay (NCI).
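Protocol summary: plate cells (96-well), add compound at 5 concentrations, incubate 48 h, interpolate endpoints linearly. At the GI50, growth is halved. TGI: concentration producing complete growth inhibition.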

Legend:
Assay in all cases: NCI anticancer screen, dose series, 48 h; in the data active = GI50 below about 0.43 µM; inactive = the rest
[1] = system: M14 melanoma
[2] = system: NCI-H23 lung
[3] = system: NCI-H460 lung
[4] = system: IGROV1 ovarian
[5] = system: CCRF-CEM leukemia
[6] = system: SW-620 colon
[7] = system: OVCAR-5 ovarian
[8] = system: A549 NSCLC
[9] = system: NCI/ADR-RES ovarian
[10] = system: HOP-92 NSCLC
[11] = system: HS 578T breast
[12] = system: MCF7 breast
[13] = system: ACHN renal
[14] = system: 786-0 renal
[15] = system: SNB-19 CNS
[16] = system: UO-31 renal
[17] = system: OVCAR-4 ovarian
[18] = system: SK-MEL-2 melanoma
[19] = system: PC-3 prostate
[20] = system: NCI-H226 lung
[21] = system: CAKI-1 renal
[22] = system: OVCAR-3 ovarian
[23] = system: UACC-62 melanoma
[24] = system: SF-539 CNS
[25] = system: SR leukemia
[26] = system: KM12 colon
[27] = system: A498 renal
[28] = system: EKVX NSCLC
[29] = system: T-47D breast
[30] = system: TK-10 renal
[31] = system: RPMI-8226 leukemia
[32] = system: SN12C renal
[33] = system: MALME-3M melanoma
[34] = system: MOLT-4 leukemia
[35] = system: LOX IMVI melanoma
[36] = system: K-562 leukemia
[37] = system: HCT-116 colon
[38] = system: DU-145 prostate
[39] = system: NCI-H522 lung
[40] = system: BT-549 breast
[41] = system: MDA-MB-231 breast
[42] = system: SF-268 CNS
[43] = system: HT29 colon
[44] = system: SF-295 CNS
[45] = system: SK-OV-3 ovarian
[46] = system: HOP-62 NSCLC
[47] = system: HL-60(TB) leukemia
[48] = system: MDA-MB-435
[49] = system: SK-MEL-28 melanoma
[50] = system: HCT-15 colon
[51] = system: SNB-75 CNS
[52] = system: HCC-2998 colon
[53] = system: UACC-257 melanoma
[54] = system: SK-MEL-5 melanoma
[55] = system: OVCAR-8 ovarian
[56] = system: U251 CNS
[57] = system: COLO 205 colon

COc1ccc(C(=O)C2C(C#N)C(C#N)C3C=Cc4ccccc4N32)cc1 (configuration not stated)
19.5 µM: TGI [47]
active: GI50 [27] 0.244 µM | GI50 [36] 0.405 µM | GI50 [48] 0.335 µM | GI50 [51] 0.278 µM
inactive: GI50 [1] 0.5 µM | GI50 [2] 3.62 µM | GI50 [3] 0.749 µM | GI50 [4] 2.74 µM | GI50 [5] 1.94 µM | GI50 [6] 0.714 µM | GI50 [7] 3.43 µM | GI50 [8] 2.4 µM | GI50 [9] 0.571 µM | GI50 [10] 2.77 µM | GI50 [11] 2.1 µM | GI50 [12] 1.09 µM | GI50 [13] 1.43 µM | GI50 [14] 4.43 µM | GI50 [15] 3.71 µM | GI50 [16] 1.95 µM | GI50 [17] 6 µM | GI50 [18] 7.44 µM | GI50 [19] 1.45 µM | GI50 [20] 2.29 µM | GI50 [21] 0.46 µM | GI50 [22] 0.642 µM | GI50 [23] 0.781 µM | GI50 [24] 1.32 µM | GI50 [25] 0.544 µM | GI50 [26] 1.25 µM | GI50 [28] 6.29 µM | GI50 [29] 23.9 µM | GI50 [30] > 100 µM | GI50 [31] 3.48 µM | GI50 [32] 2.5 µM | GI50 [33] 2.67 µM | GI50 [34] 2.6 µM | GI50 [35] 2.1 µM | GI50 [37] 0.653 µM | GI50 [38] 2.93 µM | GI50 [39] 2.45 µM | GI50 [40] 1.98 µM | GI50 [41] 1.46 µM | GI50 [42] 3.92 µM | GI50 [43] 0.742 µM | GI50 [44] 2.82 µM | GI50 [45] 7.3 µM | GI50 [46] 3.76 µM | GI50 [47] 1.23 µM | GI50 [49] 3.77 µM | GI50 [50] 0.844 µM | GI50 [52] 2.99 µM | GI50 [53] > 100 µM | GI50 [54] 3.49 µM | GI50 [55] 3.29 µM | GI50 [56] 2.82 µM
30.2 µM: TGI [20]
> 100 µM: TGI [1] | TGI [2] | TGI [3] | TGI [4] | TGI [5] | TGI [6] | TGI [7] | TGI [8] | TGI [9] | TGI [10] | TGI [11] | TGI [12] | TGI [13] | TGI [14] | TGI [15] | TGI [16] | TGI [17] | TGI [18] | TGI [19] | TGI [21] | TGI [23] | TGI [25] | TGI [26] | TGI [28] | TGI [29] | TGI [30] | TGI [31] | TGI [32] | TGI [33] | TGI [34] | TGI [35] | TGI [36] | TGI [38] | TGI [39] | TGI [40] | TGI [42] | TGI [43] | TGI [44] | TGI [45] | TGI [46] | TGI [49] | TGI [50] | TGI [52] | TGI [53] | TGI [55] | TGI [56]
4.08 µM: TGI [24]
44.1 µM: TGI [41]
1.24 µM: TGI [48]
4.22 µM: TGI [22]
5.57 µM: TGI [51]
14.9 µM: TGI [37]
3.13 µM: TGI [27]
19.8 µM: TGI [54]

COc1cccc(C2SCC(=O)N2c2ccc(-c3ccc(-n4c(-c5ccccc5)nc5ccccc5c4=O)cc3)cc2)c1OC (configuration not stated)
> 100 µM: TGI [1] | TGI [2] | TGI [3] | TGI [4] | TGI [5] | TGI [7] | TGI [8] | TGI [9] | TGI [10] | TGI [11] | TGI [12] | TGI [13] | TGI [14] | TGI [15] | TGI [16] | TGI [17] | TGI [18] | TGI [19] | TGI [20] | TGI [21] | TGI [22] | TGI [23] | TGI [24] | TGI [57] | TGI [25] | TGI [26] | TGI [27] | TGI [28] | TGI [29] | TGI [30] | TGI [31] | TGI [32] | TGI [33] | TGI [34] | TGI [35] | TGI [36] | TGI [37] | TGI [38] | TGI [39] | TGI [40] | TGI [41] | TGI [42] | TGI [43] | TGI [44] | TGI [46] | TGI [47] | TGI [48] | TGI [49] | TGI [50] | TGI [52] | TGI [53] | TGI [54] | TGI [55] | TGI [56]
89.1 µM: TGI [51]
